Results taken from article PMC8003295, “The In Vitro Interaction of 12-Oxophytodienoic Acid and Related Conjugated Carbonyl Compounds with Thiol Antioxidants” (Biomolecules, 2021).

Tests used:
Cyp20-3 [1] = target: T1, Cyp20-3 (Arabidopsis thaliana, UniProt P34791); assay: ITC (single-site fit, poor fit noted); intrinsic fluorescence quenching; PPIase activity; format: binding
T1 construct: recombinant Cyp20-3 WT, His6-tag not cleaved

Cyp20-3 [2] = target: T2, Cyp20-3 (Arabidopsis thaliana, UniProt P34791, C248S); assay: ITC (single-site fit, poor fit noted); format: binding
T2 construct: recombinant Cyp20-3 C171S variant, His6-tag not cleaved
T2 sequence (P34791 78-260 C248S): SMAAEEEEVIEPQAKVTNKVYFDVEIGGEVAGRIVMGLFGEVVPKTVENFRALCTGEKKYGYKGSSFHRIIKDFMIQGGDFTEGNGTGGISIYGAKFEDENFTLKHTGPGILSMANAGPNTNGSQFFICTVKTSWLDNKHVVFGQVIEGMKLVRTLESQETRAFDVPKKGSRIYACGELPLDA

Cyp20-3 [3] = target: T3, Cyp20-3 (Arabidopsis thaliana, UniProt P34791, C206S); assay: PPIase activity assay (chymotrypsin-coupled), […] 12-OPDA; format: biochemical
T3 construct: recombinant Cyp20-3 C129S variant, His6-tag not cleaved
T3 sequence (P34791 78-260 C206S): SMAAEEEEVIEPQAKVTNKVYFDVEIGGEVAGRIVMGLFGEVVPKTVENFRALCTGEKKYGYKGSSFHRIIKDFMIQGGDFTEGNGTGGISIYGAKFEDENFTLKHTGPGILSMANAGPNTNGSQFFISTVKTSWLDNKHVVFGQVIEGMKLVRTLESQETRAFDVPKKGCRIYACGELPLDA

T1 sequence (P34791 78-260): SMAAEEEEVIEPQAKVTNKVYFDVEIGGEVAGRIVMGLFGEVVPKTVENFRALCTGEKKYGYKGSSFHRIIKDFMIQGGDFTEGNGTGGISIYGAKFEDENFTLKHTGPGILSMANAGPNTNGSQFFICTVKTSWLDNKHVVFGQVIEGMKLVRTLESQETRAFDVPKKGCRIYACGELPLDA

CC/C=C\C[C@@H]1C(=O)C=C[C@@H]1CCCCCCCC(=O)O [12-OPDA, 12-oxophytodienoic acid]
Kd (Cyp20-3 [1]): 35.7 ± 9 µM | Kd (Cyp20-3 [2]): 26 ± 8 µM | PPIase activity assay (chymotrypsin-coupled), 26 μM 12-OPDA (Cyp20-3 [3]): 12-OPDA stimulated the activity of oxidized Cyp20-3 WT and C129S to a similar extent
